Structures are written as SMILES. A value given as a limit tells only on which side of the number the result lay.

Assay [1] relates to SKBR3 (PIK3CA WT) cells, pSer473 AKT. As to the kind of experiment: pS473 AKT assay in SKBR3 cells. The format is cell-based. To be noted: Homo sapiens, SK-BR-3, treated 2 h, read-out: SKBR3_IC50. Summed up:
(§1)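 Cells exposed 2 h to a range of PI3Kα inhibitor concentrations, then paraformaldehyde-fixed and probed for pSer473 AKT with rabbit primary overnight at 4 °C and HRP anti-rabbit secondary. Chemiluminescent cell-based ELISA read-out; IC50 from concentration-response fitting.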

Assay [2] relates to T47D (PIK3CA H1047R) cells, pSer473 AKT. As to the kind of experiment: pS473 AKT assay in T47D cells. In kind it is cell-based. The following applies: Homo sapiens, treated 2 h, read-out: T47D_IC50. Put shortly:
as §1

For the compound `CN1CCC(C#Cc2cc(NC(=O)c3cc(F)cc(C(F)(F)F)c3)c(Oc3cc(F)ccc3Cl)c3c(N)nn(C)c23)CC1` [Example 51, N-(3-Amino-4-(2-chloro-5-fluorophenoxy)-1-methyl-7-((1-methylpiperidin-4-yl)ethynyl)-1H-indazol-5-yl)-3-fluoro-5-(trifluoromethyl)benzamide], the values for the IC50 in assay [1] and in assay [2] were not below 10000 nM and less than 1000 nM, respectively.
On the same counts, the results for `Cn1nc(N)c2c(Oc3cc(F)ccc3Cl)c(NC(=O)c3cc(F)cc(C(F)(F)F)c3)cc(Br)c21` [Example 25, N-(3-Amino-7-bromo-4-(2-chloro-5-fluorophenoxy)-1-methyl-1H-indazol-5-yl)-3-fluoro-5-(trifluoromethyl)benzamide] are less than 1000 nM and less than 1000 nM.
On the same counts, the results for `Nc1nn(CCO)c2c(C#Cc3ccccn3)cc(NC(=O)c3cc(F)cc(C(F)(F)F)c3)c(Oc3cc(F)ccc3Cl)c12` [Example 67, N-(3-Amino-4-(2-chloro-5-fluorophenoxy)-1-(2-hydroxyethyl)-7-(pyridin-2-ylethynyl)-1H-indazol-5-yl)-3-fluoro-5-(trifluoromethyl)benzamide] are 1000 to 5000 nM and less than 1000 nM.
For the compound `Cn1nc(N)c2c(Oc3cc(F)ccc3Cl)c(NC(=O)c3cc(F)cc(C(F)(F)F)c3)cc(C#CC3(CO)CC3)c21` [Example 44, N-(3-Amino-4-(2-chloro-5-fluorophenoxy)-7-((1-(hydroxymethyl)cyclopropyl)ethynyl)-1-methyl-1H-indazol-5-yl)-3-fluoro-5-(trifluoromethyl)benzamide], the IC50 in assay [1] and in assay [2] was less than 1000 nM in each case.
Regarding `Nc1n[nH]c2c(-c3ccccc3)cc(NC(=O)c3cc(F)cc(C(F)(F)F)c3)c(Oc3cc(F)ccc3Cl)c12` [Example 17, N-(3-Amino-4-(2-chloro-5-fluorophenoxy)-7-phenyl-1H-indazol-5-yl)-3-fluoro-5-(trifluoromethyl)benzamide], the IC50 in assay [1] is 1000 to 5000 nM; in assay [2], less than 1000 nM.
As to `Nc1nn2c3c(cc(NC(=O)c4cc(F)cc(C(F)(F)F)c4)c(Oc4cc(F)ccc4Cl)c13)CNC2=O` [Example 68, N-(2-Amino-3-(2-chloro-5-fluorophenoxy)-8-oxo-7,8-dihydro-6H-pyrazolo[4,5,1-ij]quinazolin-4-yl)-3-fluoro-5-(trifluoromethyl)benzamide], the IC50 in assay [1] and in assay [2] was less than 1000 nM throughout.
`Cn1cc(-c2cc(NC(=O)c3cc(F)cc(C(F)(F)F)c3)c(Oc3cc(F)ccc3Cl)c3c(N)n[nH]c23)cn1` [Example 14, N-(3-Amino-4-(2-chloro-5-fluorophenoxy)-7-(1-methyl-1H-pyrazol-4-yl)-1H-indazol-5-yl)-3-fluoro-5-(trifluoromethyl)benzamide]: the IC50 in assay [1] is 1000 to 5000 nM; in assay [2], less than 1000 nM.
Turning to `CC(C)n1cc(-c2cc(NC(=O)c3cc(F)cc(C(F)(F)F)c3)c(Oc3cc(F)ccc3Cl)c3c(N)nn(C)c23)cn1` [Example 26, N-(3-Amino-4-(2-chloro-5-fluorophenoxy)-7-(1-isopropyl-1H-pyrazol-4-yl)-1-methyl-1H-indazol-5-yl)-3-fluoro-5-(trifluoromethyl)benzamide], the IC50 was 1000 to 5000 nM in assay [1] and less than 1000 nM in assay [2].
On the same counts, the results for `Cn1nc(N)c2c(Oc3cc(F)ccc3Cl)c(NC(=O)c3cc(F)cc(C(F)(F)F)c3)cc(-c3cnn(C4CCOC4)c3)c21` (stereo not drawn) [Example 28, N-(3-Amino-4-(2-chloro-5-fluorophenoxy)-1-methyl-7-(1-(tetrahydrofuran-3-yl)-1H-pyrazol-4-yl)-1H-indazol-5-yl)-3-fluoro-5-(trifluoromethyl)benzamide] are less than 1000 nM and less than 1000 nM.
In the case of `Cn1nc(N)c2c(Oc3cc(F)ccc3Cl)c(NC(=O)c3cc(F)cc(C(F)(F)F)c3)cc(Cl)c21` [Example 24, N-(3-Amino-7-chloro-4-(2-chloro-5-fluorophenoxy)-1-methyl-1H-indazol-5-yl)-3-fluoro-5-(trifluoromethyl)benzamide], the IC50 in assay [1] and in assay [2] was less than 1000 nM throughout.
With `Cc1cc(NC(=O)c2cc(F)cc(C(F)(F)F)c2)c(Oc2cc(F)ccc2Cl)c2c(N)n[nH]c12` [Example 13, N-(3-Amino-4-(2-chloro-5-fluorophenoxy)-7-methyl-1H-indazol-5-yl)-3-fluoro-5-(trifluoromethyl)benzamide], the IC50 in assay [1] and in assay [2] was less than 1000 nM in each case.
On to `Cn1nc(N)c2c(Oc3cc(F)ccc3Cl)c(NC(=O)c3cc(F)cc(C(F)(F)F)c3)cc(C#CC3CCCCN3)c21` (stereo not drawn) [Example 78, N-(3-Amino-4-(2-chloro-5-fluorophenoxy)-1-methyl-7-(piperidin-2-ylethynyl)-1H-indazol-5-yl)-3-fluoro-5-(trifluoromethyl)benzamide], for which the IC50 is 1000 to 5000 nM in assay [1] and less than 1000 nM in assay [2].
On the same counts, the results for `CNC(=O)N1CCCCC1C#Cc1cc(NC(=O)c2cc(F)cc(C(F)(F)F)c2)c(Oc2cc(F)ccc2Cl)c2c(N)nn(C)c12` (stereo not drawn) [Example 80, 2-((3-Amino-4-(2-chloro-5-fluorophenoxy)-5-(3-fluoro-5-(trifluoromethyl)benzamido)-1-methyl-1H-indazol-7-yl)ethynyl)-N-methylpiperidine-1-carboxamide] are 1000 to 5000 nM and less than 1000 nM.
Take `Nc1nn2c3c(cc(NC(=O)c4cc(F)cc(C(F)(F)F)c4)c(Oc4cc(F)ccc4Cl)c13)CNC(=O)C2` [Example 36, N-(2-Amino-3-(2-chloro-5-fluorophenoxy)-8-oxo-6,7,8,9-tetrahydro-[1,4]diazepino[6,7,1-hi]indazol-4-yl)-3-fluoro-5-(trifluoromethyl)benzamide]: the IC50 in assay [1] and in assay [2] was less than 1000 nM throughout.
In the case of `N#CCCn1nc(N)c2c(Oc3cc(F)ccc3Cl)c(NC(=O)c3cc(F)cc(C(F)(F)F)c3)cc(Cl)c21` [Example 34, N-(3-Amino-7-chloro-4-(2-chloro-5-fluorophenoxy)-1-(2-cyanoethyl)-1H-indazol-5-yl)-3-fluoro-5-(trifluoromethyl)benzamide], the IC50 in assay [1] is 1000 to 5000 nM; in assay [2], less than 1000 nM.
As for `Nc1nn(CC(=O)N2CCOCC2)c2ccc(NC(=O)c3cc(F)cc(C(F)(F)F)c3)c(Oc3cc(F)ccc3Cl)c12` [Example 10, N-(3-Amino-4-(2-chloro-5-fluorophenoxy)-1-(2-morpholino-2-oxoethyl)-1H-indazol-5-yl)-3-fluoro-5-(trifluoromethyl)benzamide], the IC50 in assay [1] is 1000 to 5000 nM; in assay [2] it was less than 1000 nM.
Regarding `Cn1nc(N)c2c(Oc3cc(F)ccc3Cl)c(NC(=O)c3cc(F)cc(Cl)c3)cc(Cl)c21` [Example 60, N-(3-Amino-7-chloro-4-(2-chloro-5-fluorophenoxy)-1-methyl-1H-indazol-5-yl)-3-chloro-5-fluorobenzamide], the IC50 in assay [1] and in assay [2] was less than 1000 nM throughout.
On to `Cn1nc(N)c2c(Oc3cc(F)ccc3Cl)c(NC(=O)c3cc(F)cc(C(F)(F)F)c3)cc(C#CC(C)(C)O)c21` [Example 39, N-(3-Amino-4-(2-chloro-5-fluorophenoxy)-7-(3-hydroxy-3-methylbut-1-yn-1-yl)-1-methyl-1H-indazol-5-yl)-3-fluoro-5-(trifluoromethyl)benzamide], for which the IC50 in assay [1] was 1000 to 5000 nM; in assay [2], less than 1000 nM.

(Values after patent US20260250251A1, “HETEROCYCLIC COMPOUNDS AS PI3Ka INHIBITORS” (Pikavation Therapeutics, Inc., priority 2022, published 2026).)
